What all share (format): cell-based
Test [1] concerns the target T1, human EDG1 (S1PR1) receptor (Homo sapiens, UniProt P21453).
T1 construct: expressed in transfected cells; host or cells: CHO-A21-Edg1#17 (CHO clone co-expressing mitochondrial aequorin and chimaeric Gaqi5)
In words: Aequorin assay, agonist potency, CHO-A21-Edg1#17 cells. To be noted: agonist mode, aequorin luminescence; read-out: S1P1 EC50. On the procedure:
(§1) Agonistic activity was measured as described below.
(§2) Cell clone CHO-A21-Edg1#17 carries the transgenes human EDG1 (S1PR1) receptor (Accession number NP_001391.2), mitochondrially targeted Aequorin (active part corresponds to accession number 1SL8_A) and chimaeric Gaqi5=Gaq modified with the 5 C-terminal amino-acids replaced with those of the Gai protein (DCGLF). CHO-A2-S1P3 Mix is a cell pool ectopically expressing human EDG3 (S1PR3) receptor (Accession number NP_005217.2) mitochondrially targeted Aequorin (active part has a sequence similar to accession number AY601106.1) and GNA16 (Accession number NP_002059.3). Cell clone CHO-A21-EDG8#12 carries the transgenes human EDG8 (S1PR5) receptor (Acession number NP_110387.1), mitochondrially expressed Aequorin (active part corresponds to accession number 1SL8_A) and chimaeric Gaqi5 (Gaq modified to present the 5 last amino-acids of the Gai protein “DCGLF”; see above). Cells are grown to mid-log phase in culture medium (HAM's F12, 10% FBS, 100 IU/mL penicillin, 100 μg/mL streptomycin, 250 μg/mL Zeocin, 400 μg/mL G418). 18 hours prior to frozen cells preparation, the medium is changed to remove the antibiotics.
(§3) 18 hours prior to the test, vials of frozen cells are quickly thawed in a 37° C. water bath, cells are recovered by centrifugation and resuspended in assay buffer (DMEM/HAM's F12 with HEPES, without phenol red+0.1% fatty acid-free BSA). Cells are gently agitated in suspension overnight at RT in presence of 5 μM of Coelenterazine h (Molecular Probes). On the day of the test, cells are diluted to their final working concentrations in assay buffer and agitated in suspension for 1 h at RT. Cells are then placed in the luminescence reader (Hamamatsu Functional Drug Screening System 6000, FDSS6000). During cells incubation, compounds are prepared in 100% DMSO, and subsequently diluted in assay buffer. Compounds are then dispensed in the assay plate (black, clear-bottom, 384-well plate). After binding of agonists to the human S1P receptor the intracellular calcium concentration increases and binding of calcium to the Aequorin/Coelenterazine complex leads to an oxidation reaction of coelenterazine, which results in the production of Aequorin, coelenteramide, CO2 and light (Dmax 469 nm). The luminescent response is dependent on the agonist concentration. For agonist testing, 30 μL of cell suspension are injected on 30 μL of test compound or reference agonist in the assay plate. The resulting emission of light is recorded for 90 seconds using the FDSS6000. Dose response curves with the reference compounds are performed before testing the compounds. S1P is the reference agonist and JTE-013 the reference antagonist for S1P2.
(§4) Luminescence data are integrated over the reading interval for agonist and antagonist modes. To standardize the emission of recorded light (determination of the “100% signal”) across plates and across different experiments, some of the wells contain 100 μM digitonin or a saturating concentration of ATP (20 μM). Plates also contain the reference agonist at a concentration equivalent to the EC80 obtained during the test validation and the EC100. Dose-response data from test compounds were analyzed with XLfit (IDBS) software using nonlinear regression applied to a sigmoidal dose-response model and the following equation: […]

Another test has as its target T2, S1P4 (Homo sapiens, UniProt O95977).
T2 sequence (O95977 1-384): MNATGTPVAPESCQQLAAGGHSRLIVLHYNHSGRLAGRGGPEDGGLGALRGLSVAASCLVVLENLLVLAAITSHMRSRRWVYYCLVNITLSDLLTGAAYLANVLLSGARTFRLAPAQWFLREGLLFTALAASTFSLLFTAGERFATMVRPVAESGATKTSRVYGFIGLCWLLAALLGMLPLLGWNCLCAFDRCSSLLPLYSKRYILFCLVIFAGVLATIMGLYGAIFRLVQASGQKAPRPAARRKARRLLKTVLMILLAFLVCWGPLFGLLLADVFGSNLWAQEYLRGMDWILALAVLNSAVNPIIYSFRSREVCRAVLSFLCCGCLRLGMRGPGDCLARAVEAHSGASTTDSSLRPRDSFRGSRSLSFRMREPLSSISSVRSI
The experiment in a line: Aequorin assay, agonist potency, S1P4. To be noted: agonist mode, aequorin luminescence. On the procedure:
as §1, §3, §4

Test [2] deals with T3, human EDG8 (S1PR5) receptor (Homo sapiens, UniProt Q9H228).
T3 construct: carries the transgenes human EDG8 (S1PR5) receptor (Acession number NP_110387.1); expressed in transfected cells; host or cells: CHO-A21-EDG8#12 (CHO clone co-expressing mitochondrial aequorin and chimaeric Gaqi5)
T3 sequence (Q9H228 whole entry): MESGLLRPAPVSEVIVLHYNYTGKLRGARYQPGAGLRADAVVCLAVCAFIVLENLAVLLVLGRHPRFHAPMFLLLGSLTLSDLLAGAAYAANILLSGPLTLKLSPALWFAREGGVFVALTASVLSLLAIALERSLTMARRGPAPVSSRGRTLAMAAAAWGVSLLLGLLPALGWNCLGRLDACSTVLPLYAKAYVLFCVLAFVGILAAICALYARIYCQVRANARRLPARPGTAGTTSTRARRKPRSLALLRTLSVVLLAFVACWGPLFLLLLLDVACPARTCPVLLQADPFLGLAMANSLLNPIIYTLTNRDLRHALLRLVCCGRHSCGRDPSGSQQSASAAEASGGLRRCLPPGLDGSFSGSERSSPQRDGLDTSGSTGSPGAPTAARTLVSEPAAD
In words: Aequorin assay, agonist potency, CHO-A21-EDG8#12 cells. The settings on record: agonist mode, aequorin luminescence; read-out: S1P5 EC50 range #. As to the method: as §1, §2, §3, §4

Some results are limits rather than exact numbers.

T1 sequence (P21453 whole entry): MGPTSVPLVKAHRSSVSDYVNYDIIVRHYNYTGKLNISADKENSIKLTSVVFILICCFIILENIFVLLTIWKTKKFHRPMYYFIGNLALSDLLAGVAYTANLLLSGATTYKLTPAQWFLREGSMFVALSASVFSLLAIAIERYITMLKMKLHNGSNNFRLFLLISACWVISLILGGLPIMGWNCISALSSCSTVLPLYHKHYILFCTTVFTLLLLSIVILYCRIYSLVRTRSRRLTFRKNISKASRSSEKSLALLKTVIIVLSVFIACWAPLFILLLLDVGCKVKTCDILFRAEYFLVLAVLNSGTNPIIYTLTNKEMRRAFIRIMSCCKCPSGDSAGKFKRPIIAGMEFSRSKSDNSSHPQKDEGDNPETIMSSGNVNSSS

As for `CCOc1ccc(COc2ccc3c(c2)CC2(C3)CN(CC3(C(=O)O)CC3)C2)c(Cl)c1` [Example 32, 1-((5′-((2-chloro-4-ethoxybenzyl)oxy)-1′,3′-dihydrospiro[azetidine-3,2′-inden]-1-yl)methyl)cyclopropanecarboxylic acid], the concentration giving a half-maximal response (EC50) in test [1] is above 1 µM; at S1P4, below 1 µM; in test [2], 1 to 10 µM.
Regarding `O=C(O)CN1CC2(Cc3ccc(OCCc4ccccc4Cl)cc3C2)C1` [Example 61, 2-(5′-(2-chlorophenethoxy)-1′,3′-dihydrospiro[azetidine-3,2′-inden]-1-yl)acetic acid], the EC50 is above 1 µM in test [1], below 1 µM at S1P4 and 0.01 to 0.1 µM in test [2].
As to `CCOc1ccc(C#Cc2ccc3c(c2)CC2(C3)CN(C3CC(C(=O)O)C3)C2)cc1` (stereo not drawn) [Example 98, 3-(5′-((4-ethoxyphenyl)ethynyl)-1′,3′-dihydrospiro[azetidine-3,2′-inden]-1-yl)cyclobutanecarboxylic acid], the EC50 in test [1] is below 1 µM; on S1P4, above 1 µM; in test [2], 0.01 to 0.1 µM.
The like results for `O=C(O)C1(CN2CC3(Cc4ccc(OCCc5ccccc5F)cc4C3)C2)CC1` [Example 136, 1-((5′-(2-fluorophenethoxy)-1′,3′-dihydrospiro[azetidine-3,2′-inden]-1-yl)methyl)cyclopropanecarboxylic acid] were, in that order, above 1 µM, below 1 µM and 1 to 10 µM.
Take `Cc1ccccc1COc1ccc2c(c1)CC1(C2)CN(CC2(C(=O)O)CC2)C1` [Example 138, 1-((5′-((2-methylbenzyl)oxy)-1′,3′-dihydrospiro[azetidine-3,2′-inden]-1-yl)methyl)cyclopropanecarboxylic acid]: the EC50 in test [1] is above 1 µM; at S1P4, below 1 µM; in test [2], 1 to 10 µM.
`O=C(O)CN1CC2(Cc3ccc(OCc4ccc(Br)cc4Cl)cc3C2)C1` [Example 22, 2-(5′-((4-bromo-2-chlorobenzyl)oxy)-1′,3′-dihydrospiro[azetidine-3,2′-inden]-1-yl)acetic acid]: the EC50 was above 1 µM in test [1], below 1 µM at S1P4 and 0.01 to 0.1 µM in test [2].
For `COc1ccc(COc2ccc3c(c2)CC2(C3)CN(CC3(C(=O)O)CC3)C2)c(Cl)c1` [Example 40, 1-((5′-((2-chloro-4-methoxybenzyl)oxy)-1′,3′-dihydrospiro[azetidine-3,2′-inden]-1-yl)methyl)cyclopropanecarboxylic acid], in that order: above 1 µM, below 1 µM and 1 to 10 µM.
For `CC(Oc1ccc(C#Cc2ccc3c(c2)CC2(C3)CN(C3CC(C(=O)O)C3)C2)cn1)C(F)(F)F` (stereo not drawn) [Example 103, 3-(5′-((6-((1,1,1-trifluoropropan-2-yl)oxy)pyridin-3-yl)ethynyl)-1′,3′-dihydrospiro[azetidine-3,2′-inden]-1-yl)cyclobutanecarboxylic acid], in that order: below 1 µM, below 1 µM and at most 0.01 µM.
The like results for `CCc1cccc(F)c1COc1ccc2c(c1)CC1(C2)CN(CC2(C(=O)O)CC2)C1` [Example 48, 1-((5′-((2-ethyl-6-fluorobenzyl)oxy)-1′,3′-dihydrospiro[azetidine-3,2′-inden]-1-yl)methyl)cyclopropanecarboxylic acid] were, in that order, above 1 µM, below 1 µM and at most 0.01 µM.
In the case of `CC1CCC(C#Cc2ccc3c(c2)CC2(C3)CN(C3CC(C(=O)O)C3)C2)CC1` (stereo not drawn) [Example 102, 3-(5′-((4-methylcyclohexyl)ethynyl)-1′,3′-dihydrospiro[azetidine-3,2′-inden]-1-yl)cyclobutanecarboxylic acid], the EC50 is above 1 µM in test [1], below 1 µM at S1P4 and at most 0.01 µM in test [2].
The like results for `CC(C)Oc1ccc(CCc2ccc3c(c2)CC2(C3)CN(CC3(C(=O)O)CC3)C2)cn1` [Example 119, 1-((5′-(2-(6-isopropoxypyridin-3-yl)ethyl)-1′,3′-dihydrospiro[azetidine-3,2′-inden]-1-yl)methyl)cyclopropanecarboxylic acid] were, in that order, above 1 µM, above 1 µM and 1 to 10 µM.
For the molecule `O=C(O)CN1CC2(Cc3ccc(OCc4c(F)cccc4C(F)(F)F)cc3C2)C1` [Example 19, 2-(5′-((2-fluoro-6-(trifluoromethyl)benzyl)oxy)-1′,3′-dihydrospiro[azetidine-3,2′-inden]-1-yl)acetic acid], the EC50 was above 1 µM in test [1], below 1 µM at S1P4 and at most 0.01 µM in test [2].
Consider `CCc1cccc(F)c1COc1ccc2c(c1)CC1(C2)CN(CC(C)CC(=O)O)C1` (stereo not drawn) [Example 65, 4-(5′-((2-ethyl-6-fluorobenzyl)oxy)-1′,3′-dihydrospiro[azetidine-3,2′-inden]-1-yl)-3-methylbutanoic acid], for which the EC50 was above 1 µM in test [1], below 1 µM at S1P4 and 0.01 to 0.1 µM in test [2].
Consider `O=C(O)CN1CC2(Cc3ccc(OC4CCc5cc(Br)cc(F)c54)cc3C2)C1` (stereo not drawn) [Example 68, 2-(5′-((5-bromo-7-fluoro-2,3-dihydro-1H-inden-1-yl)oxy)-1′,3′-dihydrospiro[azetidine-3,2′-inden]-1-yl)acetic acid], for which the EC50 in test [1] was above 1 µM; on S1P4, below 1 µM; in test [2], at most 0.01 µM.
The like results for `CC1CCC(C#Cc2ccc3c(c2)CC2(C3)CN(CC3(C(=O)O)CC3)C2)CC1` (mixture of isomers) [Example 115, 1-((5′-((4-methylcyclohexyl)ethynyl)-1′,3′-dihydrospiro[azetidine-3,2′-inden]-1-yl)methyl)cyclopropanecarboxylic acid] were, in that order, above 1 µM, below 1 µM and at most 0.01 µM.
Turning to `O=C(O)C1(CN2CC3(Cc4ccc(OCc5c(F)cccc5C(F)(F)F)cc4C3)C2)CC1` [Example 49, 1-((5′-((2-fluoro-6-(trifluoromethyl)benzyl)oxy)-1′,3′-dihydrospiro[azetidine-3,2′-inden]-1-yl)methyl)cyclopropanecarboxylic acid], the EC50 was above 1 µM in test [1], below 1 µM on S1P4 and at most 0.01 µM in test [2].
The like results for `N#Cc1cccc(COc2ccc3c(c2)CC2(C3)CN(CC3(C(=O)O)CC3)C2)c1` [Example 147, 1-((5′-((3-cyanobenzyl)oxy)-1′,3′-dihydrospiro[azetidine-3,2′-inden]-1-yl)methyl)cyclopropanecarboxylic acid] were, in that order, above 1 µM, below 1 µM and 0.1 to 1 µM.
Consider `O=C(O)C1(CN2CC3(Cc4ccc(OCCc5ccccc5C(F)(F)F)cc4C3)C2)CC1` [Example 56, 1-((5′-(2-(trifluoromethyl)phenethoxy)-1′,3′-dihydrospiro[azetidine-3,2′-inden]-1-yl)methyl)cyclopropanecarboxylic acid], for which the results for the 50% effective concentration (EC50) (in test [1]; at S1P4; in test [2]) were above 1 µM, below 1 µM and 0.01 to 0.1 µM, respectively.

As usually defined, the EC50 is the concentration that produces a half-maximal response.

The values are drawn from patent US20200055817A1 (AbbVie Deutschland GmbH & Co. KG, priority 2016, published 2020).
